For the assay, the system named is L1210 leukemia ip in BDF1 mice, survival T/C. The assay is described as follows: NCI In Vivo Anticancer Drug Screen. Data for tumor model L1210 Leukemia (intraperitoneal) in B6D2F1 (BDF1) mice. The note with it: endpoint: mean survival time, higher = longer survival. In outline:
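Tumor was transplanted into mice, which were then dosed with test compound or vehicle alone. Survival was recorded for each group, and the treated figure was expressed relative to the control figure.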

Setting [1] is: dose: 100.0 mg/kg/injection, schedule: Q04DX002 (ip), vehicle: Klucel (hydroxypropylcellulose) (HPC).
Where [2] appears, read: dose: 200.0 mg/kg/injection, schedule: Q04DX002 (ip), vehicle: Klucel (hydroxypropylcellulose) (HPC).
Where [3] appears, read: dose: 400.0 mg/kg/injection, schedule: Q04DX002 (ip), vehicle: Klucel (hydroxypropylcellulose) (HPC).
[4] abbreviates: dose: 100.0 mg/kg/injection, schedule: Q01DX001 (ip), vehicle: saline.
[5] abbreviates: dose: 200.0 mg/kg/injection, schedule: Q01DX001 (ip), vehicle: saline.
Where [6] appears, read: dose: 400.0 mg/kg/injection, schedule: Q01DX001 (ip), vehicle: saline.
The mark [7] stands for this setting: dose: 100.0 mg/kg/injection, schedule: Q01DX009 (ip), vehicle: Klucel (hydroxypropylcellulose) (HPC).
Where [8] appears, read: dose: 200.0 mg/kg/injection, schedule: Q01DX009 (ip), vehicle: Klucel (hydroxypropylcellulose) (HPC).
The mark [9] stands for this setting: dose: 400.0 mg/kg/injection, schedule: Q01DX009 (ip), vehicle: Klucel (hydroxypropylcellulose) (HPC).

Several values for one entry are separate records, joined by “and”; a condition that tells them apart may be missing. Identical values can stand only once. Inconclusive results and toxic doses are left out.

Take `Cc1cc(Cl)ccc1OC(=O)Nc1ccc(Cl)cc1`: the T/C is 103 % of control (dose: 100.0 mg/kg/injection, schedule: Q01DX001 (ip), vehicle: carboxymethylcellulose (CMC)); 95 % of control and 101 % of control (dose: 100.0 mg/kg/injection, schedule: Q01DX009 (ip), vehicle: carboxymethylcellulose (CMC)); 98 % of control under setting [1]; 96 % of control and 90 % of control (dose: 100.0 mg/kg/injection, schedule: Q04DX002 (ip), vehicle: carboxymethylcellulose (CMC)); 111 % of control (dose: 200.0 mg/kg/injection, schedule: Q01DX001 (ip), vehicle: carboxymethylcellulose (CMC)); 97 % of control and 111 % of control (dose: 200.0 mg/kg/injection, schedule: Q01DX009 (ip), vehicle: carboxymethylcellulose (CMC)). The T/C is 92 % of control under setting [2]; 94 % of control and 97 % of control (dose: 200.0 mg/kg/injection, schedule: Q04DX002 (ip), vehicle: carboxymethylcellulose (CMC)); 98 % of control (dose: 400.0 mg/kg/injection, schedule: Q01DX001 (ip), vehicle: carboxymethylcellulose (CMC)); 97 % of control and 86 % of control (dose: 400.0 mg/kg/injection, schedule: Q01DX009 (ip), vehicle: carboxymethylcellulose (CMC)); 106 % of control under setting [3]; 94 % of control and 90 % of control (dose: 400.0 mg/kg/injection, schedule: Q04DX002 (ip), vehicle: carboxymethylcellulose (CMC)).

With `CCOC(=O)C(Nc1cccc2ccccc12)C(=O)OCC`, the T/C reads like this: under setting [1], 105 % of control; under setting [2], 103 % of control; under setting [3], 100 % of control.

`COc1cc(CC2COC(=O)C2Cc2ccc(OC3OC(CO)C(O)C(O)C3O)c(OC)c2)ccc1O` (stereo not given): the T/C (dose: 25.0 mg/kg/injection, schedule: Q04DX002 (ip), vehicle: saline) was 111 % of control; the T/C (dose: 50.0 mg/kg/injection, schedule: Q04DX002 (ip), vehicle: saline) was 104 % of control; the T/C (dose: 100.0 mg/kg/injection, schedule: Q04DX002 (ip), vehicle: saline) is 107 % of control.

With `CCCCCCCCOP(=O)(OCCCCCCCC)c1ccccc1`, the T/C (dose: 10.0 mg/kg/injection, schedule: Q01DX001 (ip), vehicle: acetone) was 91 % of control; the T/C (dose: 10.0 mg/kg/injection, schedule: Q04DX003 (ip), vehicle: acetone) was 97 % of control; the T/C (dose: 12.5 mg/kg/injection, schedule: Q01DX009 (ip), vehicle: saline) was 94 % of control; the T/C (dose: 20.0 mg/kg/injection, schedule: Q01DX001 (ip), vehicle: acetone) is 91 % of control; the T/C (dose: 20.0 mg/kg/injection, schedule: Q04DX003 (ip), vehicle: acetone) was 92 % of control; the T/C (dose: 25.0 mg/kg/injection, schedule: Q01DX009 (ip), vehicle: saline) was 94 % of control. The T/C reads like this: (dose: 40.0 mg/kg/injection, schedule: Q01DX001 (ip), vehicle: acetone) 86 % of control; (dose: 40.0 mg/kg/injection, schedule: Q04DX003 (ip), vehicle: acetone) 97 % of control; (dose: 50.0 mg/kg/injection, schedule: Q01DX009 (ip), vehicle: saline) 94 % of control; (dose: 75.0 mg/kg/injection, schedule: Q01DX009 (ip), vehicle: saline) 112 % of control; (dose: 115.0 mg/kg/injection, schedule: Q01DX009 (ip), vehicle: saline) 106 % of control; (dose: 170.0 mg/kg/injection, schedule: Q01DX009 (ip), vehicle: saline) 98 % of control.

As to `CC(C)(C)OC(=O)NC(Cc1ccccc1)C(=O)O` (stereo not given), the T/C is, setting by setting: under setting [4], 100 % of control; under setting [5], 94 % of control; under setting [6], 93 % of control.

Take `COc1ccc(CN2CCCN(Cc3ccc(OC)cc3OC)C2c2ccc(F)cc2)c(OC)c1`: the T/C was 94 % of control (dose: 50.0 mg/kg/injection, schedule: Q01DX001 (ip), vehicle: saline); 89 % of control under setting [4]; 94 % of control under setting [5]; 100 % of control under setting [6].

For the molecule `CC1CC=C(/C=N/NC(N)=O)C(C)O1` (stereo not given), the T/C (dose: 50.0 mg/kg/injection, schedule: Q01DX009 (ip), vehicle: saline with Tween-80) is 94 % of control; the T/C (dose: 100.0 mg/kg/injection, schedule: Q01DX009 (ip), vehicle: saline with Tween-80) is 88 % of control; the T/C (dose: 200.0 mg/kg/injection, schedule: Q01DX009 (ip), vehicle: saline with Tween-80) was 94 % of control.

Regarding `ClC1=c2ccccc2=C2C(Cl)=c3ccccc3=C12`, the T/C runs as follows: (dose: 50.0 mg/kg/injection, schedule: Q04DX002 (ip), vehicle: Klucel (hydroxypropylcellulose) (HPC)) 97 % of control; under setting [1], 97 % of control.

In the case of `Cc1ccc(CN(C)N=Nc2ccccc2)cc1`, the T/C was 91 % of control under setting [1] and 102 % of control under setting [2].

For the molecule `Cc1cc(C)c(NC(=O)NC(C)C)c(C)c1`, the T/C reads like this: under setting [7], 104 % of control; (dose: 100.0 mg/kg/injection, schedule: Q04DX003 (ip), vehicle: Klucel (hydroxypropylcellulose) (HPC)) 98 % of control; under setting [8], 101 % of control; (dose: 200.0 mg/kg/injection, schedule: Q04DX003 (ip), vehicle: Klucel (hydroxypropylcellulose) (HPC)) 105 % of control; under setting [9], 91 % of control; (dose: 400.0 mg/kg/injection, schedule: Q04DX003 (ip), vehicle: Klucel (hydroxypropylcellulose) (HPC)) 91 % of control.

Take `CCCN=C(N)c1ccc(NC(=O)c2ccc(C(=O)Nc3ccc(C(N)=NCCC)cc3)cc2)cc1`: the T/C is 105 % of control (dose: 0.16 mg/kg/injection, schedule: Q01DX Z (ip), vehicle: carboxymethylcellulose (CMC)); 113 % of control (dose: 0.31 mg/kg/injection, schedule: Q01DX Z (ip), vehicle: carboxymethylcellulose (CMC)); 211 % of control and 257 % of control (dose: 1.25 mg/kg/injection, schedule: Q01DX Z (ip), vehicle: carboxymethylcellulose (CMC)); 190 % of control (dose: 2.5 mg/kg/injection, schedule: Q01DX Z (ip), vehicle: carboxymethylcellulose (CMC)); 114 % of control (dose: 3.0 mg/kg/injection, schedule: Q01DX001 (ip), vehicle: carboxymethylcellulose (CMC)); 169 % of control (dose: 10.0 mg/kg/injection, schedule: Q01DX001 (ip), vehicle: carboxymethylcellulose (CMC)). Besides, the T/C reads like this: (dose: 10.0 mg/kg/injection, schedule: Q01DX001 (ip), vehicle: other) 157 % of control; (dose: 10.0 mg/kg/injection, schedule: Q01DX Z (ip), vehicle: carboxymethylcellulose (CMC)) 113 % of control; (dose: 15.0 mg/kg/injection, schedule: Q01DX001 (ip), vehicle: carboxymethylcellulose (CMC)) 176 % of control and 180 % of control; (dose: 15.0 mg/kg/injection, schedule: Q01DX001 (ip), vehicle: other) 168 % of control and 191 % of control; (dose: 22.5 mg/kg/injection, schedule: Q01DX001 (ip), vehicle: carboxymethylcellulose (CMC)) 268 % of control; (dose: 22.5 mg/kg/injection, schedule: Q01DX001 (ip), vehicle: other) 234 % of control. For the same molecule, the T/C by setting is: (dose: 33.0 mg/kg/injection, schedule: Q01DX001 (ip), vehicle: carboxymethylcellulose (CMC)) 257 % of control; (dose: 33.0 mg/kg/injection, schedule: Q01DX001 (ip), vehicle: other) 269 % of control; (dose: 50.0 mg/kg/injection, schedule: Q01DX Z (oral), vehicle: carboxymethylcellulose (CMC)) 104 % of control; (dose: 100.0 mg/kg/injection, schedule: Q01DX Z (oral), vehicle: carboxymethylcellulose (CMC)) 107 % of control; (dose: 200.0 mg/kg/injection, schedule: Q01DX Z (oral), vehicle: carboxymethylcellulose (CMC)) 103 % of control; (dose: 400.0 mg/kg/injection, schedule: Q01DX Z (oral), vehicle: carboxymethylcellulose (CMC)) 98 % of control.

For the molecule `O=C(O)C(Cc1ccccc1)Cc1ccccc1`, the T/C by setting is: under setting [4], 97 % of control; under setting [5], 103 % of control; under setting [6], 109 % of control.

On to `CC1(C(Cl)Cl)C=CC(=O)C=C1`, for which the T/C runs as follows: under setting [7], 90 % of control; (dose: 100.0 mg/kg/injection, schedule: Q04DX003 (ip), vehicle: other) 103 % of control; under setting [8], 87 % of control; (dose: 200.0 mg/kg/injection, schedule: Q04DX003 (ip), vehicle: other) 111 % of control; under setting [9], 106 % of control; (dose: 400.0 mg/kg/injection, schedule: Q04DX003 (ip), vehicle: other) 95 % of control.

Take `CCCCC(CCCC)(C(N)=O)C(=O)OCC`: the T/C is 105 % of control under setting [7], 100 % of control under setting [8] and 94 % of control under setting [9].

Source of the values: PubChem BioAssay AID248 (DTP/NCI, 2004).
